From PMC12138102 (Acta Pharmaceutica Sinica. B, 2025)

How the values were obtained:
[1] = target: eeAChE (Electrophorus electricus, UniProt O42275); test: AChE inhibition, Ellman's assay; format: biochemical
[2] = target: eqBuChE (Equus caballus, UniProt P81908); test: BuChE inhibition, Ellman's assay; format: biochemical, equine; details: for IC50: IC50 ± SD eqBuChE; for SI: Selectivity Index, eeAChE and eqBuChE
[3] = target: huAChE (Homo sapiens, UniProt P22303); test: AChE inhibition, Ellman's assay; format: biochemical
[4] = target: huBuChE (Homo sapiens, UniProt P06276); test: BuChE inhibition, Ellman's assay; format: biochemical; details: for SI: Selectivity Index, huAChE and huBuChE
[5] = tested on: AlCl3-induced zebrafish AD model; test: AlCl3-induced zebrafish AD model; format: in vivo; details: donepezil 3.0 μg/mL
[6] = tested on: scopolamine-induced mice; test: Scopolamine-induced mice dysmnesia, step-down passive avoidance task; format: in vivo, Kunming mice
[7] = tested on: APP/PS1 double-transgenic mice; test: APP/PS1 mice, Morris Water Maze and tissue analyses; format: in vivo
[8] = tested on: BuChE; test: Reversibility of BuChE inhibition; format: biochemical; details: 0.1 × IC50, 120 min
[9] = plasma, donepezil 2.0 mg/kg, 8e 2.6 mg/kg

Chain of eeAChE (O42275 24-633): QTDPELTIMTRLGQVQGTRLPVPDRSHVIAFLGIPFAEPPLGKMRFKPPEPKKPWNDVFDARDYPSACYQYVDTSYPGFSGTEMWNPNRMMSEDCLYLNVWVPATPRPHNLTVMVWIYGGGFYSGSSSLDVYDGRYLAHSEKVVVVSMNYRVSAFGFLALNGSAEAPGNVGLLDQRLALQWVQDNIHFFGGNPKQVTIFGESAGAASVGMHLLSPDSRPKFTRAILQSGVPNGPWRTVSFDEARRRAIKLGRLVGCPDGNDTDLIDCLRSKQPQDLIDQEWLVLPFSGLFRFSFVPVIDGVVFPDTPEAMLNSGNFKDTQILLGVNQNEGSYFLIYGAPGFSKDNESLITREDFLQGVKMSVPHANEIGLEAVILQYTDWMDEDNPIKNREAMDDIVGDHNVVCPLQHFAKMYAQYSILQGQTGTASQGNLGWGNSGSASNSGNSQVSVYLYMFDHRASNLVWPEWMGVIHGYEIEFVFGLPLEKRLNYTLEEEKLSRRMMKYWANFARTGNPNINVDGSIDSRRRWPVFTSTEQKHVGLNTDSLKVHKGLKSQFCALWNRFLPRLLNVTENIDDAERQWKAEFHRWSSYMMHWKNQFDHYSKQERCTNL
Chain of huAChE (P22303 32-617 isoform P22303-2 limits assumed): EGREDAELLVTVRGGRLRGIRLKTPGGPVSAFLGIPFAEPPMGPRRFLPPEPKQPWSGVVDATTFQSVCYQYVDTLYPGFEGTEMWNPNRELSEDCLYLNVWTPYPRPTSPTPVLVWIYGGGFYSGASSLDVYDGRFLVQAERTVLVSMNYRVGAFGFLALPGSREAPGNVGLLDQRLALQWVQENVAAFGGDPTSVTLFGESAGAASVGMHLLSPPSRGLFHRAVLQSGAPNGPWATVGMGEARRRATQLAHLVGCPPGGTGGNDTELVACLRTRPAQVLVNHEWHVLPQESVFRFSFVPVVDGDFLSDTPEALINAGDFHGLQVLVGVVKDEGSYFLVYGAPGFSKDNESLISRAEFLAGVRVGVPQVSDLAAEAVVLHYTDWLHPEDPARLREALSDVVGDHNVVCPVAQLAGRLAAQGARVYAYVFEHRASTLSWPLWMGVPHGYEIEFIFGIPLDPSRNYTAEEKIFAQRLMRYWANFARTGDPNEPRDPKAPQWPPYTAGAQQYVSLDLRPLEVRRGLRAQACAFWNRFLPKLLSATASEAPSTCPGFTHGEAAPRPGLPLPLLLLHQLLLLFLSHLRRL
Chain of eqBuChE (P81908 whole entry): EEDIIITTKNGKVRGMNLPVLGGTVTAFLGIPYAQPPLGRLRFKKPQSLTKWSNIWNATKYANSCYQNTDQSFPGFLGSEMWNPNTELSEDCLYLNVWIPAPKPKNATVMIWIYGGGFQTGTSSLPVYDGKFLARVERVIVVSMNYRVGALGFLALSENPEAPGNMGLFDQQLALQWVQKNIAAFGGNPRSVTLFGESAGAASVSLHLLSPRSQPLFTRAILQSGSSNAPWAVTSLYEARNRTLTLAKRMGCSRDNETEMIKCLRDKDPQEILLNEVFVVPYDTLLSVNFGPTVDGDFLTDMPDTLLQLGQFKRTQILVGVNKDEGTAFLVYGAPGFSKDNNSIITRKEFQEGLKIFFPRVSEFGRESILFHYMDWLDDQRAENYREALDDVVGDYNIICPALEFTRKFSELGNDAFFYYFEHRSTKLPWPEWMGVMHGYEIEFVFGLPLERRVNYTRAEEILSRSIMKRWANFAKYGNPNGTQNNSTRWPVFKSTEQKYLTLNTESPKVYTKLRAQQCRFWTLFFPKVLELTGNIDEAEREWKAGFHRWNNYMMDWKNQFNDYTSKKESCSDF
Chain of huBuChE (P06276 29-602): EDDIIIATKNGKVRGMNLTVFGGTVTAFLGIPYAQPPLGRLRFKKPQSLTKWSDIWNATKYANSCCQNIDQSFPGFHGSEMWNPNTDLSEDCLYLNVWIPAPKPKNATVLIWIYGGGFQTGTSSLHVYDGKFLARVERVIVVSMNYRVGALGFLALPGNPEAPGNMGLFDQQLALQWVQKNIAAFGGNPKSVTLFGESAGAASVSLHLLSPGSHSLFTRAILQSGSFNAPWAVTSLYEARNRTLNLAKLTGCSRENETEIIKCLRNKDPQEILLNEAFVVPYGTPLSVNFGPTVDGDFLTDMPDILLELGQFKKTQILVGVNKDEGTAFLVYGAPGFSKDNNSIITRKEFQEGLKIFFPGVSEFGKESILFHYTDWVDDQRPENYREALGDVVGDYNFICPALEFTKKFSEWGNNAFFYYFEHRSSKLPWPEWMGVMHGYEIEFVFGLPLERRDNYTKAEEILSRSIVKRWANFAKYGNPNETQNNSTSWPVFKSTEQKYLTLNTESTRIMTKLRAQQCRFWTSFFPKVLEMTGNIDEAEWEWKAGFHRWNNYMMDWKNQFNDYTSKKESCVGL

| Compound | IC50 [1] | IC50 [2] | SI [2] | further results |
| --- | --- | --- | --- | --- |
| COc1cc(C(=O)N2CCC(Cc3ccccc3)CC2)ccc1OCCCCN1CCC(CCCc2ccccc2)CC1 [7c] | 3.4 ± 0.13 µM | 1.1 ± 0.06 µM | 3.1 | – |
| CCN(CCCCCCCCCCOc1ccc(CCC(=O)N2CCC(Cc3ccccc3)CC2)cc1OC)Cc1ccccc1 [10f] | 4.7 ± 0.28 µM | 0.59 ± 0.08 µM | 8.0 | – |
| CCN(CCCCOc1ccc(C(=O)N2CCC(Cc3ccccc3)CC2)cc1OC)Cc1ccccc1 [7e] | 2.8 ± 0.13 µM | 0.47 ± 0.05 µM | 6.0 | IC50 [3]: 3.9 ± 0.44 µM; IC50 [4]: 0.87 ± 0.23 µM; SI [4]: 4.5 |
| COc1cc(C(=O)N2CCC(Cc3ccccc3)CC2)ccc1OCCCCN1CCC(Cc2ccccc2)CC1 [7a] | 5.9 ± 0.36 µM | 0.66 ± 0.03 µM | 8.9 | – |
| COc1cc(CCC(=O)N2CCC(Cc3ccccc3)CC2)ccc1OCCCCN1CCC(c2ccccc2)CC1 [8h] | 4.7 ± 0.28 µM | 0.13 ± 0.08 µM | 36 | IC50 [3]: 6.9 ± 0.14 µM; IC50 [4]: 0.19 ± 0.19 µM; SI [4]: 36 |
| COc1cc(CCC(=O)N2CCC(Cc3ccccc3)CC2)ccc1OC(=O)CCCCN1CCC(Cc2ccccc2)CC1 [9a] | 7.1 ± 0.15 µM | 0.82 ± 0.03 µM | 8.7 | – |
| CCN(CC)CCCCOc1ccc(CCC(=O)N2CCC(Cc3ccccc3)CC2)cc1OC [8f] | 8.4 ± 0.53 µM | 0.28 ± 0.02 µM | 30 | – |
| CCN(CCCOc1ccc(CCC(=O)N2CCC(Cc3ccccc3)CC2)cc1OC)Cc1ccccc1 [10b] | 8.7 ± 0.01 µM | 0.068 ± 0.005 µM | 128 | IC50 [3]: 5.9 ± 0.26 µM; IC50 [4]: 0.091 ± 0.008 µM; SI [4]: 65 |
| COc1cc(C(=O)N2CCC(Cc3ccccc3)CC2)ccc1OCCCCN1CC(C)CC(C)C1 (stereo not shown) [7g] | 2.3 ± 0.12 µM | 3.7 ± 0.24 µM | 0.6 | – |
| COc1cc(CCC(=O)N2CCC(Cc3ccccc3)CC2)ccc1OCCCCN1CCC(c2noc3ccccc23)CC1 [8k] | 5.5 ± 0.23 µM | 0.25 ± 0.02 µM | 22 | – |
| CCN(CCCCCCCCCOc1ccc(CCC(=O)N2CCC(Cc3ccccc3)CC2)cc1OC)Cc1ccccc1 [10e] | 8.4 ± 0.53 µM | 0.28 ± 0.02 µM | 30 | – |
| COc1cc(CCC(=O)N2CCC(Cc3ccccc3)CC2)ccc1OCCCCN1CCc2ccccc2C1 [8d] | 6.2 ± 0.12 µM | 0.087 ± 0.002 µM | 71 | IC50 [3]: 8.6 ± 0.33 µM; IC50 [4]: 0.097 µM; SI [4]: 89 |
| COc1cc2c(cc1OC)C(=O)C(CC1CCN(Cc3ccccc3)CC1)C2 (stereo not shown) [Donepezil] | – | – | – | number of apoptotic cells ([5]; HE staining, 8e 0.1, 0.25, and 0.5 μg/mL): significantly reduced; swimming distance/swimming speed ([5]; 8e 0.1 and 0.25 μg/mL): significantly increased; reaction capacity ([5]; 8e 0.1 and 0.25 μg/mL, transition from dark to light): significantly enhanced; latency time ([6]; 5.0 mg/kg): 163.87 s; number of errors ([6]; 5.0 mg/kg): 0.1; neuronal apoptosis in the hippocampus ([6]; TUNEL staining, donepezil 5.0 mg/kg, 8e 6.5 mg/kg): significantly reduced; levels of IL-1β, IL-6, and TNF-α in the cerebral cortex ([6]; immunohistochemistry, donepezil 5.0 mg/kg, 8e 6.5 mg/kg): significant reduction; ACh levels ([7]; ELISA, cerebral cortex): remarkable increase; Aβ1–42 levels ([7]; ELISA, cerebral cortex): significantly reduced; IL-1β levels ([7]; ELISA, cerebral cortex): significantly reduced; IL-6 levels ([7]; ELISA, cerebral cortex): significantly reduced; TNF-α levels ([7]; ELISA, cerebral cortex): significantly reduced; neuronal abnormalities within cerebral cortex and hippocampus ([7]; HE staining, donepezil 2 mg/kg, 8e 2.6 mg/kg): marked decrease; escape latency ([7]; MWM, vs model group): significantly decreased; Aβ1–42 levels ([7]; immunofluorescence staining, cerebral cortex, donepezil 2.0 mg/kg, 8e 2.6 mg/kg): significant reduction; TG levels ([7]; plasma): significant decrease; LDL-c levels [7, 9]: significantly reduced; TC levels [7, 9]: significantly reduced |
| CCN(CCCCOc1c(OC)cc(C(=O)N2CCN(c3ccc(F)cc3)CC2)cc1OC)Cc1ccccc1 [7j] | 6.9 ± 0.04 µM | 6.3 ± 0.32 µM | 1.1 | – |
| CCN(CCCCOc1c(OC)cc(C(=O)NC2CCN(Cc3ccccc3)CC2)cc1OC)Cc1ccccc1 [7i] | 5.7 ± 0.03 µM | 2.6 ± 0.12 µM | 2.2 | – |
| COc1cc(CCC(=O)N2CCC(Cc3ccccc3)CC2)ccc1OCCCCN1CC(C)CC(C)C1 (stereo not shown) [8g] | 6.5 ± 0.33 µM | 0.75 ± 0.02 µM | 8.7 | – |
| CCN(CCCCCCOc1ccc(CCC(=O)N2CCC(Cc3ccccc3)CC2)cc1OC)Cc1ccccc1 [10d] | 4.6 ± 0.03 µM | 0.12 ± 0.003 µM | 38 | – |
| CCN(CCCCCOc1ccc(CCC(=O)N2CCC(Cc3ccccc3)CC2)cc1OC)Cc1ccccc1 [10c] | 6.2 ± 0.12 µM | 0.077 ± 0.002 µM | 81 | IC50 [3]: 8.6 ± 0.33 µM; IC50 [4]: 0.11 µM; SI [4]: 78 |
| COc1cc(CCC(=O)N2CCC(Cc3ccccc3)CC2)ccc1OCCCCN1CCC(CCCc2ccccc2)CC1 [8c] | 4.2 ± 0.26 µM | 0.063 ± 0.005 µM | 67 | IC50 [3]: 6.7 ± 0.16 µM; IC50 [4]: 0.082 ± 0.007 µM; SI [4]: 82 |
| COc1cc(C(=O)N2CCC(Cc3ccccc3)CC2)ccc1OCCCCN1CCN(Cc2ccccc2)CC1 [7b] | 7.9 ± 0.25 µM | 3.1 ± 0.12 µM | 2.5 | – |
| CCN(CCOc1ccc(CCC(=O)N2CCC(Cc3ccccc3)CC2)cc1OC)Cc1ccccc1 [10a] | 3.6 ± 0.02 µM | 0.22 ± 0.03 µM | 16 | – |
| CCN(C)C(=O)Oc1cccc([C@H](C)N(C)C)c1 [Rivastigmine] | – | – | – | recovery of BuChE activity / reversibility [8]: remained relatively unchanged |
| COc1cc(CCC(=O)N2CCC(Cc3ccccc3)CC2)ccc1OC(=O)CCCCN1CCN(Cc2ccccc2)CC1 [9b] | 1.9 ± 0.11 µM | 1.7 ± 0.06 µM | 1.1 | – |
| COc1cc(CCC(=O)N2CCC(Cc3ccccc3)CC2)ccc1OCCCCN1CCC(Cc2ccccc2)CC1 [8a] | 1.7 ± 0.01 µM | 0.093 ± 0.005 µM | 18 | IC50 [3]: 5.9 ± 0.26 µM; IC50 [4]: 0.16 ± 0.43 µM; SI [4]: 37 |
| COc1cc(CCC(=O)N2CCC(Cc3ccccc3)CC2)ccc1OCCCCN1CCN(Cc2ccccc2)CC1 [8b] | 5.8 ± 0.35 µM | 3.3 ± 0.13 µM | 1.8 | – |
| COc1cc(CCC(=O)N2CCC(Cc3ccccc3)CC2)ccc1OCCCCN1CCC(C(=O)c2ccc(F)cc2)CC1 [8j] | 4.9 ± 0.18 µM | 0.31 ± 0.12 µM | 16 | – |
| CCN(CC)CCCCOc1ccc(C(=O)N2CCC(Cc3ccccc3)CC2)cc1OC [7f] | 8.6 ± 0.32 µM | 6.4 ± 0.24 µM | 1.3 | – |
| COc1cc(C(=O)N2CCC(Cc3ccccc3)CC2)ccc1OCCCCN1CCc2ccccc2C1 [7d] | 3.1 ± 0.15 µM | 0.85 ± 0.02 µM | 3.6 | – |
| COc1cc(CCC(=O)N2CCC(Cc3ccccc3)CC2)ccc1OC(=O)CCCCN1CCC(CCCc2ccccc2)CC1 [9c] | 8.1 ± 0.43 µM | 0.73 ± 0.23 µM | 11 | – |
